Results from patent publication US20240016941A1, “COMBINATION THERAPY” (priority 2020, published 2024).

Columns and labels:
Assay type in all cases: biochemical
[1] = target: T1, purified LasB protein from P. aeruginosa (Pseudomonas aeruginosa, UniProt P14756); assay: Fluorometric assay to determine Ki (purified LasB, Abz-Ala-Gly-Leu-Ala-p-Nitro-Benzyl-Amide substrate)
T1 construct: purchased Merck or Charles River Laboratories
Experimental: (§1) Experiments were therefore conducted (1) to measure the potency of inhibition of compounds of the invention against purified Pseudomonas aeruginosa LasB enzyme and also experiments were conducted (2) to measure the ability of compounds of the invention to inhibit LasB-catalysed elastin degradation. The first assay uses a commercial fluorescent synthetic peptide and purified LasB enzyme. The LasB hydrolysis kinetics are measured allowing the determination of the IC50 and Ki of the inhibitors; the second is a more physiological assay using dialysed Pseudomonas aeruginosa supernatant as source of enzyme, plus its natural substrate Elastin. It is an “end point assay” that determines the percentage of LasB inhibition by each compound for one particular time point and inhibitor concentration. Technical details are described below:
This assay uses commercially available substrate (Abz-Ala-Gly-Leu-Ala-p-Nitro-Benzyl-Amide (Ex: 340 nm, Em: 415 nm) from Peptide International) and purified LasB protein from P. aeruginosa (provided by Merck or Charles River Laboratories). It is performed to determine LasB elastase activity and assess compound inhibition in 96-well plate format. All compounds of Formula (I) were assessed using the method described below.
Method: 10 to 140 ng/ml purified LasB is incubated with 250 μM Abz-Ala-Gly-Leu-Ala-p-Nitro-Benzyl-Amide in 50 mM Tris-HCl pH 7.4, 2.5 mM CaCl2), 0.01% of Triton X100 at 37° C. LasB activity (corresponding to fluorescence emission induced by substrate hydrolysis) is measured over 30 min at 37° C. with a fluorescence plate reader such as the Perkin Elmer Envision or similar. Different range of inhibitor concentrations are routinely assessed depending of inhibitor potency from 0.0016 to 200 μM (2-fold dilutions series) in order to determine IC50.
The equation used to calculate the Ki from IC50 is: Ki=IC50/(1+([S]/Km)) where [S]=250 μM and Km=214 μM.

[2] = target: T2, LasB elastase activity of dialysed supernatant from P. aeruginosa PAO1 (Pseudomonas aeruginosa, UniProt P14756); assay: Elastin Congo-Red assay to determine % inhibition (dialysed PAO1 supernatant); conditions: read-out: Elastin hydrolysis % inhibition @ 25 μM inhibitor concentration
T2 construct: Culture supernatants are recovered by centrifugation and filtrated through a 0.22 μM filter; endogenous in cells; host or cells: P. aeruginosa strain PAO1, culture supernatant, filtered and dialysed
T2 sequence (P14756 198-498): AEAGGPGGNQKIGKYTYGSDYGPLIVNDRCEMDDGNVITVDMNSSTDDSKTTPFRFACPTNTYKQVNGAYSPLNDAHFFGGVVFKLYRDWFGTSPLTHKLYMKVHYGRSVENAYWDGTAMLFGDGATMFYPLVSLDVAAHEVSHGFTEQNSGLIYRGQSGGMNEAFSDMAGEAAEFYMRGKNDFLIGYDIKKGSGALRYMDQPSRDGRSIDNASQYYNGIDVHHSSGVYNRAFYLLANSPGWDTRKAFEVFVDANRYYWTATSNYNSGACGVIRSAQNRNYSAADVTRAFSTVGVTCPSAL
Experimental: as §1
The Elastin assay uses as source of enzyme dialysed supernatant from P. aeruginosa PAO1 and the Elastin Congo-Red as substrate. The natural LasB substrate, elastin, is complexed with the congo-red dye (Elastin Congo-Red, ECR). The elastolysis activity from the culture supernatant will degrade elastin and release the congo-red dye into the supernatant. This red dye release can be measured with a spectrophotometer.
Method: To determine LasB elastase activity and assess compound inhibition, an overnight culture of P. aeruginosa strain PAO1 is diluted in LB medium. After reaching an OD600nm of 0.6, this culture is diluted and incubated for additional 18-24 hours in a shaking incubator. Culture supernatants are recovered by centrifugation and filtrated through a […] filter. These supernatants are dialysed (filtration molecules <20 kDa) into a 50 mM Tris-HCl pH 7.4, 2.5 mM CaCl2 solution at 4° C. under agitation for 24 hours. Supernatant dialysed is then mixed volume/volume with the ECR suspension (20 mg/mL of ECR in 100 mM Tris-HCl pH 7.4 buffer supplemented with 1 mM CaCl2)) supplemented with Triton X100 (final concentration of 0.01%) in presence of DMSO (positive control) and/or different concentrations of compound (routinely 50 to 1.56 μM). As a negative control, the dialysed supernatant is replaced by Tris-HCl solution (50 mM Tris-HCl pH 7.4, 2.5 mM CaCl2). The mixed reaction is then incubated overnight in a 37° C. shaking incubator. The reaction supernatant is recovered by centrifugation and the release of congo-red is measured by its absorbance at 495 nm (OD495nm).
Percentage inhibition is determined using the following equation:
((OD495 nm value of positive control−OD495nm value of negative control)−(OD495nm value of treated supernatant−OD495nm value of negative control))/(OD495nm value of positive control−OD495nm value of negative control)×100.

[3] = target: purified LasB (Pseudomonas aeruginosa, UniProt P14756); assay: Inhibition of LasB-mediated hydrolysis of pro-IL-1β to IL-1β (FRET peptide)
Chain of purified LasB (P14756 198-498): as above
Experimental: Hydrolysis of this FRET peptide was continuously monitored using a Victor multimode plate reader (Perkin Elmer) with excitation 355 nm and emission at 450 nm in the presence of varying concentrations of compounds of the invention. Inhibitory constants (Ki) were determined for certain compounds of the invention (at least 2 independent replicates) using a competitive inhibitor model.

T1 sequence (P14756 198-498): as above

Row | SMILES | Ki [1] [nM] | inhibition at 25 µM [2] [%] | Ki [3] [nM]
1 | COc1cc2sc(CNC(=O)C3(CC(=O)O)Cc4ccccc4C3)nc2cc1OCCN1CCOCC1 [Example 9, 2-[2-[[6-methoxy-5-(2-morpholinoethoxy)-1,3-benzothiazol-2-yl]methylcarbamoyl]indan-2-yl]acetic acid] | < 50 | > 80 | 160
2 | COc1cc2sc(CNC(=O)C3(CC(=O)[O-])Cc4cc(F)c(F)cc4C3)nc2cc1OCCC[N+]1(C)CCCC1 [Example 19, 2-[5,6-difluoro-2-[[6-methoxy-5-[3-(1-methylpyrrolidin-1-ium-1-yl)propoxy]-1,3-benzothiazol-2-yl]methylcarbamoyl]indan-2-yl]acetate] | < 50 | > 80 | 270
3 | COc1cc2sc(CNC(=O)C3(CC(=O)O)Cc4ccccc4C3)nc2cc1S(=O)(=O)N1CCN(C)CC1 [Example 45, 2-[2-[[6-methoxy-5-(4-methylpiperazin-1-yl)sulfonyl-1,3-benzothiazol-2-yl]methylcarbamoyl]indan-2-yl]acetic acid] | 50 to 200 | 60 to 80 | 
4 | O=C(O)CC1(C(=O)NCc2nc3c(S(=O)(=O)N4CCCC4)cccc3s2)Cc2ccccc2C1 [Example 3, 2-[2-[(4-pyrrolidin-1-ylsulfonyl-1,3-benzothiazol-2-yl)methylcarbamoyl]indan-2-yl]acetic acid] | 50 to 200 | 60 to 80 | 
5 | COc1cc2sc(CNC(=O)C3(CC(=O)[O-])Cc4ccccc4C3)nc2cc1OCCC[N+](C)(C)CCO [Example 20, 2-[2-[[5-[3-[2-hydroxyethyl(dimethyl)ammonio]propoxy]-6-methoxy-1,3-benzothiazol-2-yl]methylcarbamoyl]indan-2-yl]acetate] | < 50 | 60 to 80 | 340
6 | COc1cc2sc(CNC(=O)C3(CC(=O)O)Cc4cc(F)c(F)cc4C3)nc2cc1OCCN1CCOCC1 [Example 10, 2-[5,6-difluoro-2-[[6-methoxy-5-(2-morpholinoethoxy)-1,3-benzothiazol-2-yl]methylcarbamoyl]indan-2-yl]acetic acid] | < 50 | > 80 | 
7 | COc1cc2sc(CNC(=O)C3(CC(=O)O)Cc4ccccc4C3)nc2cc1C(=O)N1CC(N(C)C)C1 [Example 36, 2-[2-[[5-[3-(dimethylamino)azetidine-1-carbonyl]-6-methoxy-1,3-benzothiazol-2-yl]methylcarbamoyl]indan-2-yl]acetic acid] | < 50 | > 80 | 
8 | COc1cc2sc(CNC(=O)C3(CC(=O)O)Cc4cc(F)c(F)cc4C3)nc2cc1OCC(=O)N1CCN(C)CC1 [Example 12, 2-[5,6-difluoro-2-[[6-methoxy-5-[2-(4-methylpiperazin-1-yl)-2-oxo-ethoxy]-1,3-benzothiazol-2-yl]methylcarbamoyl]indan-2-yl]acetic acid] | 50 to 200 | 60 to 80 | 
9 | NC(=O)c1cccc2sc(CNC(=O)C3(CC(=O)O)Cc4ccccc4C3)nc12 [Example 1, 2-[2-[(4-carbamoyl-1,3-benzothiazol-2-yl)methylcarbamoyl]indan-2-yl]acetic acid] | 200 to 10000 | 10 to 60 | 
10 | COc1cc2sc(CNC(=O)C3(CC(=O)O)Cc4ccccc4C3)nc2cc1C(=O)N1CCN(C)CC1 [Example 33, 2-[2-[[6-methoxy-5-(4-methylpiperazine-1-carbonyl)-1,3-benzothiazol-2-yl]methylcarbamoyl]indan-2-yl]acetic acid] | < 50 | 60 to 80 | 
11 | COc1cc2sc(CNC(=O)C3(CC(=O)O)Cc4cc(F)c(F)cc4C3)nc2cc1OCC1CCN(C)CC1 [Example 11, 2-[5,6-difluoro-2-[[6-methoxy-5-[(1-methyl-4-piperidyl)methoxy]-1,3-benzothiazol-2-yl]methylcarbamoyl]indan-2-yl]acetic acid] | < 50 | > 80 | 220
12 | COc1cc2sc(CNC(=O)C3(CC(=O)[O-])Cc4cc(F)c(F)cc4C3)nc2cc1OCCOCC[N+](C)(C)C [Example 55, 2-[5,6-difluoro-2-[[6-methoxy-5-[2-[2-(trimethylammonio)ethoxy]ethoxy]-1,3-benzothiazol-2-yl]methylcarbamoyl]indan-2-yl]acetate] | < 50 |  | 420
13 | COc1cc2sc(CNC(=O)C3(CC(=O)[O-])Cc4cc(F)c(F)cc4C3)nc2cc1OCC(=O)N1CC[N+](C)(C)CC1 [Example 14, 2-[2-[[5-[2-(4,4-dimethylpiperazin-4-ium-1-yl)-2-oxo-ethoxy]-6-methoxy-1,3-benzothiazol-2-yl]methylcarbamoyl]-5,6-difluoro-indan-2-yl]acetate] | 50 to 200 | 60 to 80 | 
14 | COc1cc2sc(CNC(=O)C3(CC(=O)[O-])Cc4cc(F)c(F)cc4C3)nc2cc1OCCC[N+](C)(C)CCO [Example 21, 2-[5,6-difluoro-2-[[5-[3-[2-hydroxyethyl(dimethyl)ammonio]propoxy]-6-methoxy-1,3-benzothiazol-2-yl]methylcarbamoyl]indan-2-yl]acetate] | < 50 | > 80 | 
15 | COc1cc2sc(CNC(=O)C3(CC(=O)[O-])Cc4ccccc4C3)nc2cc1OCCC[N+](C)(CCO)CCO [Example 22, 2-[2-[[5-[3-[bis(2-hydroxyethyl)-methyl-ammonio]propoxy]-6-methoxy-1,3-benzothiazol-2-yl]methylcarbamoyl]indan-2-yl]acetate] | < 50 | 60 to 80 | 400
16 | COc1cc2sc(CNC(=O)C3(CC(=O)[O-])Cc4ccccc4C3)nc2cc1C(=O)N1CCOC(C[N+](C)(C)C)C1 (stereo not shown) [Example 41, 2-[2-[[6-methoxy-5-[2-[(trimethylammonio)methyl]morpholine-4-carbonyl]-1,3-benzothiazol-2-yl]methylcarbamoyl]indan-2-yl]acetate] | 50 to 200 | 60 to 80 | 
17 | CN1CCN(CCOc2ccc3sc(CNC(=O)C4(CC(=O)O)Cc5ccccc5C4)nc3c2)CC1 [Example 25, 2-[2-[[5-[2-(4-methylpiperazin-1-yl)ethoxy]-1,3-benzothiazol-2-yl]methylcarbamoyl]indan-2-yl]acetic acid] | 200 to 10000 | 60 to 80 | 
18 | COc1cc2sc(CNC(=O)C3(CC(=O)[O-])Cc4cc(F)c(F)cc4C3)nc2cc1OCCC[N+]1(C)CCOCC1 [Example 15, 2-[5,6-difluoro-2-[[6-methoxy-5-[3-(4-methylmorpholin-4-ium-4-yl)propoxy]-1,3-benzothiazol-2-yl]methylcarbamoyl]indan-2-yl]acetate] | 50 to 200 | 60 to 80 | 
19 | CN1CCN(C(=O)COc2ccc3sc(CNC(=O)C4(CC(=O)O)Cc5ccccc5C4)nc3c2)CC1 [Example 24, 2-[2-[[5-[2-(4-methylpiperazin-1-yl)-2-oxo-ethoxy]-1,3-benzothiazol-2-yl]methylcarbamoyl]indan-2-yl]acetic acid] | 200 to 10000 | 60 to 80 | 
